Structures can show the parent of a compound that is named as a salt.
Key:
[1] = cited from earlier work
[2] = Protocol: Therefore, drug-interaction studies were undertaken by the inventors and the samples were evaluated for chemical stability.
[3] = oral, 80 mg strength IR tablets; cited from earlier work
[4] = cited from earlier work; remark: listed apart in the source

For `CNC1=Nc2ccc(Cl)cc2C(c2ccccc2)=[N+]([O-])C1.Cl` [Chlordiazepoxide HCl, Chlordiazepoxide hydrochloride], the “plasma levels after administration is discontinued” value ([1]; after discontinuation) is listed as “decline slowly over a period of several days”, the half-life ([1]; in vivo) is listed as 24 to 48 h and the “time for peak blood levels to be reached” value ([1]; in vivo) is listed as “several hours”.
With `CCOc1ccc(/C=C2\NCCc3cc(OCC)c(OCC)cc32)cc1OCC` [Drotaverine HCl, Drotaverine hydrochloride] the “chemical stability / degradation in acidic environment” value [2] was “best chemical stability”, the “degradation in basic conditions” value [2] was “degrades significantly” and the “degradation in oxidative conditions / peroxide solution” value [2] was “degrades significantly”.
For `CCOc1ccc(/C=C2\NCCc3cc(OCC)c(OCC)cc32)cc1OCC` [Drotaverine], the “drug absorption from small intestine” value [3] is listed as roughly 90% and the “oral LD50” value [4] is listed as greater than 1000 mg/Kg body weight.
